The values below come from patent US20230250054A1, “SELECTIVE HISTONE DEACETYLASE 6 INHIBITORS” (The Board of Trustees of the University of Illinois, priority 2020, published 2023).

One data set addresses T1, HDAC6 (Homo sapiens, UniProt Q9UBN7).
T1 construct: our assay that uses approximately 0.6 nM concentration of the full-length enzyme; made in house; host or cells: HEK293/T17 cells, transient transfection
T1 sequence (Q9UBN7 1-1215): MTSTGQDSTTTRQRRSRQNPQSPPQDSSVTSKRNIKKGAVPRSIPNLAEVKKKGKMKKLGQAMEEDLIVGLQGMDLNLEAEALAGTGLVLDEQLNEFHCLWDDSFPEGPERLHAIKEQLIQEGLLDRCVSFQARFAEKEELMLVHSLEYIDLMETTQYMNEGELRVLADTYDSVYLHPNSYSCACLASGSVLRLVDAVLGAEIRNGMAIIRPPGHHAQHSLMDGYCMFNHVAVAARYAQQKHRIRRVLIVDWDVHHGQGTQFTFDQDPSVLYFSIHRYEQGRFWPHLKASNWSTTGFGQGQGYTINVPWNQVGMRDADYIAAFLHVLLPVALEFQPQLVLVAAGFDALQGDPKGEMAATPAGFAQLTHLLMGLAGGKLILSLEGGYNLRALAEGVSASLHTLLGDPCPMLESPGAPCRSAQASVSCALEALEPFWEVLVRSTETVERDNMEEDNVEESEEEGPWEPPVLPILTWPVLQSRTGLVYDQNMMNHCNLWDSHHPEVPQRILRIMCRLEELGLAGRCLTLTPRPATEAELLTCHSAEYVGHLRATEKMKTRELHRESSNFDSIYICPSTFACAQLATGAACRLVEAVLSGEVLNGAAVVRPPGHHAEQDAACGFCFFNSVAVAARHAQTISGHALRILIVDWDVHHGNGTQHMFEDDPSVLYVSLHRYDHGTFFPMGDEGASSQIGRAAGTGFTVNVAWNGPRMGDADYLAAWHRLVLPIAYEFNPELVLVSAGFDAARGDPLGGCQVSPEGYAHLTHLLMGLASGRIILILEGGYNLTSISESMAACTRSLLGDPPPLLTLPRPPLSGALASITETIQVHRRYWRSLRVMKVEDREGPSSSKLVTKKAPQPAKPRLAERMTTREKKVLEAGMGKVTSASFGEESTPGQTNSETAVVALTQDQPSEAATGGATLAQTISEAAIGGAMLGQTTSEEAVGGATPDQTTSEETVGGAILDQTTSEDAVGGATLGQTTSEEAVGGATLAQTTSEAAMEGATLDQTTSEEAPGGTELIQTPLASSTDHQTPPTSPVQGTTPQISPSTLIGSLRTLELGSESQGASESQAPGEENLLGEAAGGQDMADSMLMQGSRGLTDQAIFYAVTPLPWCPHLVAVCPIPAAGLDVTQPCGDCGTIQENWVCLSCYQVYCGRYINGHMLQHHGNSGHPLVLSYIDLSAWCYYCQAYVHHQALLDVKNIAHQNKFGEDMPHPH
The experiment in a line: Fluorescence-based HDAC inhibition assay, HDAC6. It counts as biochemical. To be noted: for LE (ligand efficiency): 1.4 × pIC50/number of heavy atoms; for selectivity over Class IIa isoforms HDAC4, 5, 7, and 9: HDAC6 vs HDAC4, 5, 7 and 9; for LipE (lipophilic ligand efficiency): pIC50 − clog Po/w. On the procedure: (§1) Briefly, transiently transfected cells were harvested three days post-transfection and the cell pellets resuspended in a lysis buffer (50 mM Tris, 150 mM NaCl, 10 mM KCl, 2 mM MgCl2, 10% glycerol, 0.2% NP-40, 2 Units/mL benzonase, pH 8) supplemented with a cocktail of protease inhibitors (Roche, Basel, Switzerland). Cells were lysed by sonication (30 W; 3×20 s) on ice, and the cell lysate cleared by centrifugation at 40 000×g for 30 min at 4° C. […] Purified proteins were concentrated to 1 mg/mL, aliquoted, flash-frozen in liquid nitrogen, and stored at −80° C. until further use.
(§2) Briefly, individual HDACs were preincubated with dilution series of tested inhibitors (0-100 μM) in a 384-well plate in the total volume of 40 μL for 10 min at 37° C. in a reaction buffer comprising 50 mM HEPES, 140 mM NaCl, 10 mM KCl, 1 mM TCEP, 0.1% BSA, pH 7.4. Deacetylation reaction was started by the addition of 10 μL of a 10 μM substrate into the HDAC/inhibitor mixture. Following the 30 min incubation at 37° C., the reaction was terminated by the addition of 25 μL of the trypsin solution (4 mg/mL). Fluorescence development by trypsin was carried out at 37° C. for 15 and 60 min for Ac-GAK(Ac)-AMC and Boc-Lys(TFA)-AMC substrate, respectively. […] Non-linear regression analysis was employed to calculate IC50 values using the GraphPad Prism software. […] Reactions without the enzyme or the inhibitor were used to define 0% and 100% of the HDAC activity, respectively.

For a further data set, the target named is T2, HDAC5 (Homo sapiens, UniProt Q9UQL6).
T2 construct: made in house; host or cells: HEK293/T17 cells, transient transfection
Kind of data set: Fluorescence-based HDAC inhibition assay, HDAC5. It counts as biochemical. To be noted: for IC50: 10 μM Boc-Lys(TFA)-AMC substrate, mean of two experiments ± SEM. On the procedure: as §1, §2

For data set [1] the following is noted: mean with standard error.
A further data set deals with HDAC4 (Homo sapiens, UniProt P56524). The experiment in a line: Fluorescence-based HDAC inhibition assay, HDAC4. It is filed as biochemical. To be noted: for IC50: 10 μM Boc-Lys(TFA)-AMC substrate, mean of two experiments ± SEM. The method, then: as §1, with “Large scale expression of human HDACs was carried out in HEK293/T17 cells essentially as described previously (see, e.g., Falkenberg et al., Nat. Rev. Drug Discov. 13, 673-691 (2014); or Matthias et al., Cell Cycle 7: 7-10 (2008)). Briefly,” for “Briefly,”
Briefly, individual HDACs were preincubated with dilution series of tested inhibitors (0-100 μM) in a 384-well plate in the total volume of 40 μL for 10 min at 37° C. in a reaction buffer comprising 50 mM HEPES, 140 mM NaCl, 10 mM KCl, 1 mM TCEP, 0.1% BSA, pH 7.4. Deacetylation reaction was started by the addition of 10 μL of a 10 μM substrate into the HDAC/inhibitor mixture. Following the 30 min incubation at 37° C., the reaction was terminated by the addition of 25 μL of the trypsin solution (4 mg/mL). Fluorescence development by trypsin was carried out at 37° C. for 15 and 60 min for Ac-GAK(Ac)-AMC and Boc-Lys(TFA)-AMC substrate, respectively. Released aminomethylcoumarin was quantified using a CLARIOstar fluorimeter with the excitation and emission wavelengths set to 365 nm and 440 nm, respectively. Non-linear regression analysis was employed to calculate IC50 values using the GraphPad Prism software. […] Reactions without the enzyme or the inhibitor were used to define 0% and 100% of the HDAC activity, respectively.

The mark [2] stands for this setting: 10 μM Ac-GAK(Ac)-AMC substrate, mean of two experiments ± SEM.

Chain of HDAC4 (P56524 whole entry): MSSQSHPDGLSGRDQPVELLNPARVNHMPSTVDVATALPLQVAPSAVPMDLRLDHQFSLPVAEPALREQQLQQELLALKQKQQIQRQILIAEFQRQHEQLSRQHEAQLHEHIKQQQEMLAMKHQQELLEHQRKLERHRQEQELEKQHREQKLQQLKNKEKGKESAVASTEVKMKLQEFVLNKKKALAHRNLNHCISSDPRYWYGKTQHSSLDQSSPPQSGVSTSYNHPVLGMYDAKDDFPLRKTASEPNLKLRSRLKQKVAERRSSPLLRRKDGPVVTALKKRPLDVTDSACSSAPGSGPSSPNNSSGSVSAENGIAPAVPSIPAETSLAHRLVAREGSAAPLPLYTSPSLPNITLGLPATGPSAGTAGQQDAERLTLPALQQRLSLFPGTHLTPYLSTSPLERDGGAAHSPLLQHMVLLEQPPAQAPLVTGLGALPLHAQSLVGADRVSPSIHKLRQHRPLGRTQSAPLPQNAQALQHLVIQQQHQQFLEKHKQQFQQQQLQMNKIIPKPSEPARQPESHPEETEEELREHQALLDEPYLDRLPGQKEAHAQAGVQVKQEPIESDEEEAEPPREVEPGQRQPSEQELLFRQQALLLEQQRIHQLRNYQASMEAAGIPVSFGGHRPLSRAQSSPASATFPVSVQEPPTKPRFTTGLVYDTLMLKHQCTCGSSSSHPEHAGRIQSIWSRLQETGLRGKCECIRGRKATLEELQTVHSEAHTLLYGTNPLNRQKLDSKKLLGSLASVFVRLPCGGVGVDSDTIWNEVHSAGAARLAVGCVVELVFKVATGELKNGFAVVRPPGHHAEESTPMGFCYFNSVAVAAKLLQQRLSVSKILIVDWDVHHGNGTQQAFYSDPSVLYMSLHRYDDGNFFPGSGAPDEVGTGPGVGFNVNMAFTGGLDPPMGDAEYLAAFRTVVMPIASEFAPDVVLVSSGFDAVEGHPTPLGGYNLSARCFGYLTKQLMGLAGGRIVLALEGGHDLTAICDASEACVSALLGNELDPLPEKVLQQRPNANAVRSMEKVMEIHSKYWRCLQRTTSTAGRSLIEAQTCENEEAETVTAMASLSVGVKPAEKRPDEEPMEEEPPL
T2 sequence (Q9UQL6 whole entry): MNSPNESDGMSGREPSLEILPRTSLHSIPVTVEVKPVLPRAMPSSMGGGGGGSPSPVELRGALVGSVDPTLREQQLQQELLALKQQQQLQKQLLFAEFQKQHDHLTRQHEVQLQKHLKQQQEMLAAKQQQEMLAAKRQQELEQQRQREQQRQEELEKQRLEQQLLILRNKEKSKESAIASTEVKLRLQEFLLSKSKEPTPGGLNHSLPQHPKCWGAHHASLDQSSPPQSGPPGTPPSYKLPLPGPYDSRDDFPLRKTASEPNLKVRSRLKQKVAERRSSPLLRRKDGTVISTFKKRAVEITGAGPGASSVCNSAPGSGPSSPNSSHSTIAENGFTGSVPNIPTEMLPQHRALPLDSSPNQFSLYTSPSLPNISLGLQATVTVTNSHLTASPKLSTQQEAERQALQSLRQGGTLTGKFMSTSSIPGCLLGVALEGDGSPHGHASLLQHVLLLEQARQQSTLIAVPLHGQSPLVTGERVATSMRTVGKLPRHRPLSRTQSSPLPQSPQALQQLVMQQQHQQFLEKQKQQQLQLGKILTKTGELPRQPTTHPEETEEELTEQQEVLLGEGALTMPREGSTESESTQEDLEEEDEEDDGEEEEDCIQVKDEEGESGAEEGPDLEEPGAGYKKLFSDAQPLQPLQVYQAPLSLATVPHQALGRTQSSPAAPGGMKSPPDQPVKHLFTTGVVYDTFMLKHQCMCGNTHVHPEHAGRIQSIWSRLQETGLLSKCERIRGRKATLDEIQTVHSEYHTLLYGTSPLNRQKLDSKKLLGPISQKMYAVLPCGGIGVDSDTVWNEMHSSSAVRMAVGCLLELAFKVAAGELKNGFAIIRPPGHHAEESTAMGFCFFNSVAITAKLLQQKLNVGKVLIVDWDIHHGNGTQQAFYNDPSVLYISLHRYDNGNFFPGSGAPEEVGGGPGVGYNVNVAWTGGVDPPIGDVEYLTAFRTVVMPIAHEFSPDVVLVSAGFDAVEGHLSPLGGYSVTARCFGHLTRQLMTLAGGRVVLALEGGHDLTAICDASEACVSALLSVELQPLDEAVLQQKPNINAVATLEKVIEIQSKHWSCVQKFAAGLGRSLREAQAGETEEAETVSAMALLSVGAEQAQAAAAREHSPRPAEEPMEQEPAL

On to `NCc1ccc(NC(=O)N(CCCCO)Cc2ccc(C(=O)NO)cc2)cc1` [Compound 6a, 4-((3-(4-(Aminomethyl)phenyl)-1-(4-hydroxybutyl)ureido)methyl)-N-hydroxybenz-amide], for which, on HDAC6, the “SI (HDAC6 selectivity index), HDAC6” value was 1; the “LE (ligand efficiency)” value is on record as 0.47; the “selectivity over Class IIa isoforms HDAC4, 5, 7, and 9” value is on record as “thousand-fold selectivity”; the “LipE (lipophilic ligand efficiency)” value amounted to 7.57. On HDAC6 (setting [2]), this molecule showed an IC50 of 0.0004 µM. The half-inhibitory concentration (IC50) on HDAC6 (Table 2) was 0.0004 µM. Also, on HDAC5, the “SI (HDAC6 selectivity index over HDAC5)” value is given as 8,550 and half-maximal inhibition (IC50) was put at 3.42 µM. Also, the “Rat liver microsomes (t1/2, min)” value in data set [1] was found to be 177 min. In addition, on HDAC4, the “SI (HDAC6 selectivity index over HDAC4)” value is 20,600 and the IC50 stood at 8.25 µM.

For the molecule `CCCCN(Cc1ccc(C(=O)NO)cc1)C(=O)Nc1ccc(CN)cc1` [Compound 6b, 4-((3-(4-(Aminomethyl)phenyl)-1-butylureido)methyl)-N-hydroxybenzamide], at HDAC6, the “SI (HDAC6 selectivity index), HDAC6” value amounted to 1; the “LE (ligand efficiency)” value is 0.47; the “LipE (lipophilic ligand efficiency)” value is reported as 6.59. This molecule yielded an IC50 at HDAC6 (setting [2]) of 0.0009 ± 0.0007 µM. At HDAC5, the “SI (HDAC6 selectivity index over HDAC5)” value is reported as 11,200 and the IC50 came out at 10.1 µM. In data set [1], the “Rat liver microsomes (t1/2, min)” value is reported as 173 min. Further, at HDAC4, the “SI (HDAC6 selectivity index over HDAC4)” value is on record as 25,700 and the half-inhibitory concentration (IC50) turned out to be 23.1 µM.

With `O=C(NO)c1ccc(CN(CCCCO)C(=O)Nc2ccccc2)cc1` [Compound 6c, reference compound], at HDAC6, the “SI (HDAC6 selectivity index), HDAC6” value was 1; the “LE (ligand efficiency)” value turned out to be 0.50; the “selectivity over Class IIa isoforms HDAC4, 5, 7, and 9” value is “thousand-fold selectivity”; the “LipE (lipophilic ligand efficiency)” value was 6.98. On HDAC6 (setting [2]), this molecule displayed an IC50 of 0.0005 µM. This molecule displayed an IC50 on HDAC5 of 9.13 µM. For the same molecule, in data set [1], the “Rat liver microsomes (t1/2, min)” value is listed as 198 min. For the same molecule, at HDAC4, it took 14 µM to reach half-maximal inhibition (IC50).
